In patent US20100041892A1, “Therapeutic agent for diabetes” (priority 2005, published 2010):
Where two headings read alike, the source gives them in different places.

Tests used:
[1] = biological target: T1, PPARγ-RXRα heterodimer (Homo sapiens, UniProt P37231); assay: PPARγ-RXRα heterodimer ligand activity (luciferase reporter, PPARγ:RXRα:4ERPP/CHO-K1 cells); type: cell-based; settings: concentration showing 50% of the maximum luciferase induction rate; CHO-K1 reporter cells, one day incubation
T1 construct: expressed in transfected cells; host or cells: CHO-K1 (PPARγ:RXRα:4ERPP/CHO-K1)
T1 sequence (P37231 1-477 isoform P37231-2): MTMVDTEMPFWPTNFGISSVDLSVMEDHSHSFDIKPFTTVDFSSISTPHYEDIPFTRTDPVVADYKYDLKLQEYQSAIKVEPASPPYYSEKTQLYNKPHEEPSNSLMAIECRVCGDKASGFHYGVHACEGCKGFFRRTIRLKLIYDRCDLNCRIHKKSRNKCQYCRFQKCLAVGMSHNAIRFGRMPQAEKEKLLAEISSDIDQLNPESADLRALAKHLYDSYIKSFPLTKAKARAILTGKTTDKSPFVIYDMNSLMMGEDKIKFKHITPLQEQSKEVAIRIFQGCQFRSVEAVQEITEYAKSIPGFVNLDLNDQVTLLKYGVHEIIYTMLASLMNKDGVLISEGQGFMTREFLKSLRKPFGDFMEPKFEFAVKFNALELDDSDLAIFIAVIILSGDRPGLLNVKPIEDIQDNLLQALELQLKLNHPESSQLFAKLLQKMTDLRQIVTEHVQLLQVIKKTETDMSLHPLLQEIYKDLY
T1 sequence (P19793 1-462 partner): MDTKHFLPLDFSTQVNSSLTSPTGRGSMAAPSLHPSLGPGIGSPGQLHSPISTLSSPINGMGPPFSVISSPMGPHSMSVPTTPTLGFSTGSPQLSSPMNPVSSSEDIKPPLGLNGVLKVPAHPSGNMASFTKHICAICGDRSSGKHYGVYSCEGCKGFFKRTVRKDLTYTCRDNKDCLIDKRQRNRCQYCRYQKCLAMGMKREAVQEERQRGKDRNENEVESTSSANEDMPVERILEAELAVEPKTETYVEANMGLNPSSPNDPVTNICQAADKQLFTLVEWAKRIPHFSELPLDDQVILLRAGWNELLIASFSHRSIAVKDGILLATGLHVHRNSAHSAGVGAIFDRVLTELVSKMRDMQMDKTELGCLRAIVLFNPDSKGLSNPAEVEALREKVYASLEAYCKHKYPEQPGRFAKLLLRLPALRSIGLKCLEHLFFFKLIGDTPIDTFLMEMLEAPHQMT
Method: The PPARγ:RXRα:4ERPP/CHO-K1 cells described in WO03/099793 were cultured in a Ham F12 medium [manufactured by Life Technologies, Inc., US] containing 10% calf fetal serum [manufactured by Life Technologies, Inc., US], sown in a 96-well white plate (manufactured by Corning Coster Corporation, US] at 1×10^4 cells/well, and incubated overnight in a carbon dioxide gas incubator at 37° C.
Then, the medium was removed from the 96 well white plate, 45 μl of Ham F12-medium containing 0.1% fatty acid-free bovine serum albumin (BSA) and a test compound (5 μl) were added, and the cells were incubated for one day in a carbon dioxide gas incubator at 37° C. The medium was removed, 20 μl of PicaGene 7.5 (manufactured by Wako Pure Chemical Industries, Ltd.) 2-fold diluted with HBSS (HANKS' BALANCED SALT SOLUTION) [manufactured by BIO WHITTAKER, US] was added. After stirring, the luciferase activity was determined using the 1420 ARVO Multilabel Counter [manufactured by PerkinElmer, US].
The induction rate was calculated from the luciferase activity of each test compound based on the luciferase activity of the test compound non-administration group as 1. The test compound concentration and the induction rate were analyzed by PRISM [manufactured by GraphPad Software, Inc., US] to calculate EC50 value (compound concentration showing 50% of the maximum value of induction rate) of the test compound.

[2] = system: KKAy mice; assay: Blood glucose and blood lipid (triglyceride) lowering action in mice; type: in vivo; settings: Mus musculus, 4TO7, po, 4 to 7 days; for response vs control in vivo at 0.03 %: 0.03% in powder diet; for response vs control in vivo at 0.005 %: 0.005% in powder diet; for response vs control in vivo at 0.01 %: 0.01% in powder diet
Text: The test compound was mixed with a powder diet (CE-2, CLEA JAPAN, INC.) at a proportion of 0.01% (0.03% for the compounds of Examples 1, 2, 12, 81, 94, 96, 129 and 143, and 0.005% for the compounds of Examples 28, 30 and 37) and freely given to KKAy mice (9 to 14-week-old, 5 mice per group) which are obesity non-insulin-dependent diabetes (type-2 diabetes) models, for 4 to 7 days. During this period, water was freely given. The blood was drawn from the orbital venous plexus. Glucose and triglyceride in the plasma separated from the blood were quantitated using L Type Wako Glu2 (Wako Pure Chemical Industries, Ltd.) and L Type Wako TG·H (Wako Pure Chemical Industries, Ltd.), respectively, according to an enzyme method.

[3] = plasma glucose relative to non-administration group = 100%, read-out: hypoglycemic action (%)
[4] = plasma triglyceride relative to non-administration group = 100%, read-out: hypolipidemic action (%)

SMILES	EC50 [1] [nM]	response vs control in vivo at 0.03 % [2, 3] [%]	response vs control in vivo at 0.03 % [2, 4] [%]	response vs control in vivo at 0.005 % [2, 3] [%]	response vs control in vivo at 0.005 % [2, 4] [%]	response vs control in vivo at 0.01 % [2, 3] [%]	response vs control in vivo at 0.01 % [2, 4] [%]	melting point [°C]
CCCCCS(=O)(=O)NC(=O)CCc1ccc(OCCOC)cc1Oc1ncc(C(F)(F)F)cc1Cl [Example 1, 3-[2-{[3-chloro-5-(trifluoromethyl)pyridin-2-yl]oxy}-4-(2-methoxyethoxy)phenyl]-N-(pentylsulfonyl)propanamide]	1.5	47	53	–	–	–	–	–
CCCCCS(=O)(=O)NC(=O)CCc1ccc(OC(C)C)cc1Oc1ncc(C(F)(F)F)cc1Cl [Example 2, 3-(2-{[3-chloro-5-(trifluoromethyl)pyridin-2-yl]oxy}-4-isopropoxyphenyl)-N-(pentylsulfonyl)propanamide]	2.6	50	41	–	–	–	–	–
CCCCCS(=O)(=O)NC(=O)/C=C/c1ccc(OCCOC)cc1Oc1ncc(C(F)(F)F)cc1Cl [Example 12, (2E)-3-[2-{[3-chloro-5-(trifluoromethyl)pyridin-2-yl]oxy}-4-(2-methoxyethoxy)phenyl]-N-(pentylsulfonyl)acrylamide]	15	46	43	–	–	–	–	–
CCCCCS(=O)(=O)NC(=O)OCCCc1ccc(OCCOC)cc1Oc1ncc(C(F)(F)F)cc1Cl [Example 28, 3-[2-{[3-chloro-5-(trifluoromethyl)pyridin-2-yl]oxy}-4-(2-methoxyethoxy)phenyl]propyl (pentylsulfonyl)carbamate]	4.5	–	–	52	32	–	–	–
COCCOc1ccc(CCCOC(=O)NS(=O)(=O)c2ccc(C)cc2)c(Oc2ncc(C(F)(F)F)cc2Cl)c1 [Example 30, 3-[2-{[3-chloro-5-(trifluoromethyl)pyridin-2-yl]oxy}-4-(2-methoxyethoxy)phenyl]propyl [(4-methylphenyl)sulfonyl]carbamate monohydrate]	3.8	–	–	47	57	–	–	–
COCCOc1ccc(/C=C/COC(=O)NS(=O)(=O)c2ccc(Cl)cc2)c(Oc2ncc(C(F)(F)F)cc2Cl)c1 [Example 37, (2E)-3-[2-{[3-chloro-5-(trifluoromethyl)pyridin-2-yl]oxy}-4-(2-methoxyethoxy)phenyl]-2-propen-1-yl [(4-chlorophenyl)sulfonyl]carbamate dihydrate]	21	–	–	68	70	–	–	–
CCCCCS(=O)(=O)NC(=O)OCc1ccc(OCCOC)cc1Oc1ncc(C(F)(F)F)cc1Cl [Example 58, 2-{[3-chloro-5-(trifluoromethyl)pyridin-2-yl]oxy}-4-(2-methoxyethoxy)benzyl (pentylsulfonyl)carbamate]	10	–	–	–	–	64	73	–
CCCCCS(=O)(=O)NC(=O)CCc1cc(OC(C)C)nn1Cc1ccc(Cl)cc1Cl [Example 81, 3-[1-(2,4-dichlorobenzyl)-3-isopropoxy-1H-pyrazol-5-yl]-N-(pentylsulfonyl)propanamide]	16	44	60	–	–	–	–	–
CCCCCS(=O)(=O)NC(=O)/C=C/c1cc(OC(C)C)nn1Cc1ccc(Cl)cc1Cl [Example 94, (2E)-3-[1-(2,4-dichlorobenzyl)-3-isopropoxy-1H-pyrazol-5-yl]-N-(pentylsulfonyl)acrylamide]	20	48	79	–	–	–	–	–
CCCCCS(=O)(=O)NC(=O)/C=C/c1ccc(OCCC2(C)OCCO2)cc1Oc1ncc(C(F)(F)F)cc1Cl [Example 453, (2E)-3-{2-{[3-chloro-5-(trifluoromethyl)pyridin-2-yl]oxy}-4-[2-(2-methyl-1,3-dioxolan-2-yl)ethoxy]phenyl}-N-(pentylsulfonyl)acrylamide]	7.3	–	–	–	–	–	–	90 to 92
